Source: patent publication US9663508B2, “Biaryl acyl-sulfonamide compounds as sodium channel inhibitors” (AMGEN INC., priority 2013, dated 2017)

target: human Nav1.7 (Homo sapiens (Human), UniProt Q15858); assay: Nav 1.7 in vitro PatchXpress (PX) assay; type: cell-based; conditions: not given
Sequence (Q15858 whole entry): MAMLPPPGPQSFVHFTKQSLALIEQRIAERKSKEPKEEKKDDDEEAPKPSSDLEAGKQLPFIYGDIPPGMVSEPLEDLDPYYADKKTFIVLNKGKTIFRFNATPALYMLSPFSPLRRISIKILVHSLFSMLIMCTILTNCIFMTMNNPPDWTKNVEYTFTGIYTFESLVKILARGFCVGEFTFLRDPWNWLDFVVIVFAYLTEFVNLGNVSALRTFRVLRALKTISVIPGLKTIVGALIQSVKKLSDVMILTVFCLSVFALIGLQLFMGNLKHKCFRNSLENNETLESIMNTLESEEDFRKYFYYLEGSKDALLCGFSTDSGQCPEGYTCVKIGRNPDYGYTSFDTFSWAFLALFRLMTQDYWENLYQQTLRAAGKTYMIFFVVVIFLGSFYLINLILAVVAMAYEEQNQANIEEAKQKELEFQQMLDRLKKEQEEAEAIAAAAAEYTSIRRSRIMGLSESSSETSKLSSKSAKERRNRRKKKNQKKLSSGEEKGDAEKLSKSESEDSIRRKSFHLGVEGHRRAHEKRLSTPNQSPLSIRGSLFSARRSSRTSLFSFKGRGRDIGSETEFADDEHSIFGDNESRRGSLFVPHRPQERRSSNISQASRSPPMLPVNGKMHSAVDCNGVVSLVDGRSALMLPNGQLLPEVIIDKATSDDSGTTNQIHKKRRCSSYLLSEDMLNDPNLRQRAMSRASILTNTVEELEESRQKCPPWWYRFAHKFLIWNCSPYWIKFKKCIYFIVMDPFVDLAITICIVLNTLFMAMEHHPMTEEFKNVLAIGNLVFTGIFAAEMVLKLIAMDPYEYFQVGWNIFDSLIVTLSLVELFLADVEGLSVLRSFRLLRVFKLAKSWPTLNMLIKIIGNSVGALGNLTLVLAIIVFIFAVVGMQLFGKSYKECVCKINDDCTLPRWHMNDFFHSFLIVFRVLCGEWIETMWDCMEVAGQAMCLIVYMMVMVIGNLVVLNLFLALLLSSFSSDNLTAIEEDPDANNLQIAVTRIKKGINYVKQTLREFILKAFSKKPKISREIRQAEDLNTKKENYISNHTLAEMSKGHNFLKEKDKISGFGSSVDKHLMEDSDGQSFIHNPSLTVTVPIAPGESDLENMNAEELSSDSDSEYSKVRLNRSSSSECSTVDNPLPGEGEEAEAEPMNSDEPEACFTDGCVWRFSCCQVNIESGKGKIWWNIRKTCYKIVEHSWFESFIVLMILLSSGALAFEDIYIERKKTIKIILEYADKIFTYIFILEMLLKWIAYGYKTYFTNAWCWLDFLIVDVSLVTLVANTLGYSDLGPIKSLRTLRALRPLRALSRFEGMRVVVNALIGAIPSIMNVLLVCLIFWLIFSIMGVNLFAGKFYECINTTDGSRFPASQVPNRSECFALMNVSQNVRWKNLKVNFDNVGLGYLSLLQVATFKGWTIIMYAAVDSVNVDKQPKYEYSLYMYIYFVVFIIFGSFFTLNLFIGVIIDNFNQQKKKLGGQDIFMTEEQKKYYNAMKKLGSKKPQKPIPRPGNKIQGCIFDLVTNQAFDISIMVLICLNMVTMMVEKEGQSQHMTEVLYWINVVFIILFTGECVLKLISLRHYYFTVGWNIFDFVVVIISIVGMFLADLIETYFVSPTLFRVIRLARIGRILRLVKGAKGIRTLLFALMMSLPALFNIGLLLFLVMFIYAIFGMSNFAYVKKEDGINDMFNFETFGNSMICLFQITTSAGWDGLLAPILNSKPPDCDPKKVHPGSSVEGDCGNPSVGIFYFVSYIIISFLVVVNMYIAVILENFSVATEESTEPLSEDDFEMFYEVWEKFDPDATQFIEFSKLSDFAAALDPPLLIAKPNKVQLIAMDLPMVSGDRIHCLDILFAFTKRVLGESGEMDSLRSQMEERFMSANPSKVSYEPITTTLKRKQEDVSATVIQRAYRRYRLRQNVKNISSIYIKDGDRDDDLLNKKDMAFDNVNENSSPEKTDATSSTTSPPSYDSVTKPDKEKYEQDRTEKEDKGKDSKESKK

Question: How did the IC50 turn out when `Cc1cc(C(=O)NS(C)(=O)=O)c(F)cc1-c1cnc(O[C@@H](c2ccccc2)C(F)(F)F)c(Cl)c1` [Example 684, 4-(5-chloro-6-((1S)-2,2,2-trifluoro-1-phenylethoxy)-3-pyridinyl)-2-fluoro-5-methyl-N-(methylsulfonyl)benzamide] was run?
Answer: 94.1 nM

Question: Which IC50 does the source give for `Cc1ccc(Oc2ncc(-c3ccc(C(=O)NS(C)(=O)=O)cc3OC(F)F)cc2Cl)cc1Cl` [Example 449, 4-(5-chloro-6-(3-chloro-4-methylphenoxy)-3-pyridinyl)-3-(difluoromethoxy)-N-(methylsulfonyl)benzamide] here?
Answer: 79.2 nM

Question: `COc1cc(C(=O)NS(C)(=O)=O)ccc1-c1cnc(Oc2ccc(C)c(Cl)c2)c(C#N)c1` [Example 549, 4-(6-(3-chloro-4-methylphenoxy)-5-cyano-3-pyridinyl)-3-methoxy-N-(methylsulfonyl)benzamide] was tested. Which IC50 did it give?
Answer: 50.5 nM

Question: Which IC50 does the source give for `COc1cc(C(=O)NS(C)(=O)=O)ccc1-c1cnc(Oc2ccc(C)c(Cl)c2)c(Cl)c1` [Example 329, 4-(5-chloro-6-(3-chloro-4-methylphenoxy)-3-pyridinyl)-3-methoxy-N-(methylsulfonyl)benzamide] here?
Answer: 84.7 nM

Question: How did the IC50 turn out when `COc1cc(C(=O)NS(C)(=O)=O)ccc1-c1cnc(Oc2c(Cl)cccc2Cl)c(Cl)c1` [Example 581, 4-(5-chloro-6-(2,6-dichlorophenoxy)-3-pyridinyl)-3-methoxy-N-(methylsulfonyl)benzamide] was run?
Answer: 84.6 nM

Question: `COc1cc(C(=O)NS(C)(=O)=O)ccc1-c1cnc(Oc2ccc(Cl)c(Cl)c2)c(C#N)c1` [Example 692, 4-(5-cyano-6-(3,4-dichlorophenoxy)-3-pyridinyl)-3-methoxy-N-(methylsulfonyl)benzamide] was tested. Which IC50 did it give?
Answer: 60.3 nM

Question: For `COc1cc(C(=O)NS(C)(=O)=O)ccc1-c1cnc(Oc2cccc(F)c2F)c(Cl)c1` [Example 402, 4-(5-chloro-6-(2,3-difluorophenoxy)-3-pyridinyl)-3-methoxy-N-(methylsulfonyl)benzamide], which IC50 is on record?
Answer: 80 nM

Question: Which IC50 does the source give for `COc1cc(C(=O)NS(C)(=O)=O)c(F)cc1-c1cnc(N(C)C2CCC2)c(Cl)c1` [Example 697, 4-(5-chloro-6-(cyclobutyl(methyl)amino)-3-pyridinyl)-2-fluoro-5-methoxy-N-(methylsulfonyl)benzamide] here?
Answer: 146 nM

Question: Which IC50 does the source give for `Cc1cc(C(=O)NS(C)(=O)=O)c(F)cc1-c1cnc(Oc2ccc(F)cc2F)c(Cl)c1` [Example 603, 4-(5-chloro-6-(2,4-difluorophenoxy)-3-pyridinyl)-2-fluoro-5-methyl-N-(methylsulfonyl)benzamide] here?
Answer: 143 nM

Question: Which IC50 does the source give for `COc1cc(C(=O)NS(C)(=O)=O)ccc1-c1cnc(Oc2ccc(C)cc2Cl)c(Cl)c1` [Example 344, 4-(5-chloro-6-(2-chloro-4-methylphenoxy)-3-pyridinyl)-3-methoxy-N-(methylsulfonyl)benzamide] here?
Answer: 91.5 nM

Question: For `CC[C@@H](Oc1ncc(-c2cc(F)c(C(=O)NS(C)(=O)=O)cc2C)cc1Cl)c1ccc(F)cc1` [Example 639, 4-(5-chloro-6-(((1R)-1-(4-fluorophenyl)propyl)oxy)-3-pyridinyl)-2-fluoro-5-methyl-N-(methylsulfonyl)benzamide, 4-(5-chloro-6-(((1S)-1-(4-fluorophenyl)propyl)oxy)-3-pyridinyl)-2-fluoro-5-methyl-N-(methylsulfonyl)benzamide], which IC50 is on record?
Answer: 70.4 nM

Question: `Cc1ccc(Cl)c(Oc2ncc(-c3ccc(C(=O)NS(C)(=O)=O)cc3OC3COC3)cc2Cl)c1` [Example 423, 4-(5-chloro-6-(2-chloro-5-methylphenoxy)-3-pyridinyl)-N-(methylsulfonyl)-3-(3-oxetanyloxy)benzamide] was tested. Which IC50 did it give?
Answer: 38.6 nM

Question: With `Cc1cc(C(=O)NS(C)(=O)=O)c(F)cc1-c1cnc(Oc2cccc(C(F)(F)F)c2C)c(Cl)c1` [Example 677, 4-(5-chloro-6-(2-methyl-3-(trifluoromethyl)phenoxy)-3-pyridinyl)-2-fluoro-5-methyl-N-(methylsulfonyl)benzamide] as the molecule, how does the IC50 read?
Answer: 83.7 nM

Question: For `C[C@H](Oc1ncc(-c2ccc(C(=O)NS(C)(=O)=O)cc2OC(F)F)cc1Cl)c1ccccc1` [Example 457, 4-(5-chloro-6-((1S)-1-phenylethoxy)-3-pyridinyl)-3-(difluoromethoxy)-N-(methylsulfonyl)benzamide], which IC50 is on record?
Answer: 80 nM

same assay, conditions: in-vitro Nav 1.7 PX data

Question: `COc1cc(C(=O)NS(C)(=O)=O)c(F)cc1-c1cnc(Oc2cc(Cl)c(Cl)cc2Cl)c(Cl)c1` [Example 739, 4-(5-chloro-6-(2,4,5-trichlorophenoxy)-3-pyridinyl)-2-fluoro-5-methoxy-N-(methylsulfonyl)benzamide] was tested. Which IC50 did it give?
Answer: 51 nM

Question: `CCS(=O)(=O)NC(=O)c1ccc(-c2cnc(OC3CCC3)c(Cl)c2)c(OC)c1` [Example 790, 4-(5-chloro-6-(cyclobutyloxy)-3-pyridinyl)-N-(ethylsulfonyl)-3-methoxybenzamide] was tested. Which IC50 did it give?
Answer: 123 nM

Question: `COc1cc(C(=O)NS(C)(=O)=O)c(F)cc1-c1cnc(SCc2cc(F)ccc2F)c(Cl)c1` [Example 730, 4-(5-chloro-6-((2,5-difluorobenzyl)sulfanyl)-3-pyridinyl)-2-fluoro-5-methoxy-N-(methylsulfonyl)benzamide] was tested. Which IC50 did it give?
Answer: 58.5 nM

Question: For `Cc1cc(C(=O)NS(=O)(=O)C2CC2)c(F)cc1-c1cnc(OC2CCC2)c(Cl)c1` [Example 797, 4-(5-chloro-6-(cyclobutyloxy)-3-pyridinyl)-N-(cyclopropylsulfonyl)-2-fluoro-5-methylbenzamide], which IC50 is on record?
Answer: 98.8 nM

Question: With `COc1cc(C(=O)NS(C)(=O)=O)c(F)cc1-c1cnc(NCC2CC(C)(C)C2)c(Cl)c1` [Example 723, 4-(5-chloro-6-(((3,3-dimethylcyclobutyl)methyl)amino)-3-pyridinyl)-2-fluoro-5-methoxy-N-(methylsulfonyl)benzamide] as the molecule, how does the IC50 read?
Answer: 74.8 nM

Question: `COc1cc(C(=O)NS(C)(=O)=O)c(F)cc1-c1cnc(OC(C)C2CCC2)c(Cl)c1` (centres unmarked) [Example 719, 4-(5-Chloro-6-(1-Cyclobutylethoxy)Pyridin-3-yl)-2-Fluoro-5-Methoxy-N-(Methylsulfonyl)Benzamide] was tested. Which IC50 did it give?
Answer: 89 nM

Question: How did the IC50 turn out when `Cc1cc(C(=O)NS(C)(=O)=O)c(F)cc1-c1cnc(Oc2cc(Cl)cc(Cl)c2)c(C(F)(F)F)c1` [Example 817, 4-(6-(3,5-Dichlorophenoxy)-5-(Trifluoromethyl)Pyridin-3-yl)-2-Fluoro-5-Methyl-N-(Methylsulfonyl)Benzamide] was run?
Answer: 169 nM

Question: For `Cc1cc(C(=O)NS(C)(=O)=O)c(F)cc1-c1ccc(Cl)c(C(F)(F)F)c1` [Example 806, 4′-Chloro-5-Fluoro-2-Methyl-N-(Methylsulfonyl)-3′-(Trifluoromethyl)-4-Biphenylcarboxamide], which IC50 is on record?
Answer: 618 nM

Question: `COc1cc(C(=O)NS(C)(=O)=O)c(F)cc1-c1cnc(Oc2ccc(F)c(Cl)c2)c(Cl)c1` [Example 741, 4-(5-chloro-6-(3-chloro-4-fluorophenoxy)-3-pyridinyl)-2-fluoro-5-methoxy-N-(methylsulfonyl)benzamide] was tested. Which IC50 did it give?
Answer: 56 nM

Question: With `COc1cccc(CSc2ncc(-c3cc(F)c(C(=O)NS(C)(=O)=O)cc3C)cc2Cl)c1` [Example 818, 4-(5-Chloro-6-((3-Methoxybenzyl)Thio)-Pyridin-3-yl)-2-Fluoro-5-Methyl-N-(Methylsulfonyl)Benzamide] as the molecule, how does the IC50 read?
Answer: 169 nM

Question: With `Cc1cc(Cl)cc(Cl)c1Oc1ncc(-c2ccc(C(=O)NS(C)(=O)=O)cc2Br)cc1Cl` [Example 794, 3-bromo-4-(5-chloro-6-(2,4-dichloro-6-methylphenoxy)-3-pyridinyl)-N-(methylsulfonyl)benzamide] as the molecule, how does the IC50 read?
Answer: 27.5 nM

Question: Which IC50 does the source give for `COc1cc(C(=O)NS(C)(=O)=O)c(F)cc1-c1cnc(Oc2ccc(F)cc2F)c(Cl)c1` [Example 742, 4-(5-chloro-6-(2,4-difluorophenoxy)-3-pyridinyl)-2-fluoro-5-methoxy-N-(methylsulfonyl)benzamide] here?
Answer: 94 nM

Question: For `COc1cc(C(=O)NS(C)(=O)=O)c(F)cc1-c1cnc(Oc2ccc(C)c(Cl)c2)c(Cl)c1` [Example 751, 4-(5-chloro-6-(3-chloro-4-methylphenoxy)-3-pyridinyl)-2-fluoro-5-methoxy-N-(methylsulfonyl)benzamide], which IC50 is on record?
Answer: 98.3 nM

Question: With `COc1cc(C(=O)NS(C)(=O)=O)c(F)cc1-c1cnc(Oc2c(Cl)cc(F)cc2Cl)c(Cl)c1` [Example 737, 4-(5-chloro-6-(2,6-dichloro-4-fluorophenoxy)-3-pyridinyl)-2-fluoro-5-methoxy-N-(methylsulfonyl)benzamide] as the molecule, how does the IC50 read?
Answer: 100 nM

Question: With `CS(=O)(=O)NC(=O)c1cc(C2CC2)c(-c2cnc(OC3CCC3)c(Cl)c2)cc1F` [Example 802, 4-(5-chloro-6-cyclobutoxypyridin-3-yl)-5-cyclopropyl-2-fluoro-N-(methylsulfonyl)benzamide] as the molecule, how does the IC50 read?
Answer: 136 nM

Question: For `COc1cc(C(=O)NS(C)(=O)=O)c(F)cc1-c1cnc(Oc2ccc(F)c3c2CCC3)c(Cl)c1` [Example 757, 4-(5-chloro-6-((7-fluoro-2,3-dihydro-1H-inden-4-yl)oxy)-3-pyridinyl)-2-fluoro-5-methoxy-N-(methylsulfonyl)benzamide], which IC50 is on record?
Answer: 47.7 nM

Question: Which IC50 does the source give for `Cc1cc(Cl)cc(Cl)c1Oc1ncc(-c2cc(F)c(C(=O)NS(C)(=O)=O)cc2OC(F)F)cc1Cl` [Example 782, 4-(5-chloro-6-(2,4-dichloro-6-methylphenoxy)-3-pyridinyl)-5-(difluoromethoxy)-2-fluoro-N-(methylsulfonyl)benzamide] here?
Answer: 16.1 nM

Question: Which IC50 does the source give for `CS(=O)(=O)NC(=O)c1ccc(-c2cnc(Oc3cc(Cl)cc(Cl)c3)c(Cl)c2)c(Cl)c1` [Example 777, 3-chloro-4-(5-chloro-6-(3,5-dichlorophenoxy)-3-pyridinyl)-N-(methylsulfonyl)benzamide] here?
Answer: 40 nM

Question: `Cc1cc(C(=O)NS(C)(=O)=O)c(F)cc1-c1ccc(OCC(F)(F)F)cc1` [Example 810, 5-fluoro-2-methyl-N-(methylsulfonyl)-4′-(2,2,2-trifluoroethoxy)-4-biphenylcarboxamide] was tested. Which IC50 did it give?
Answer: 4020 nM

Question: `COc1ncc(F)cc1-c1cc(-c2cc(F)c(C(=O)NS(C)(=O)=O)cc2F)cnc1OCC(C)C` [Example 837, 2,5-Difluoro-4-(5′-Fluoro-2′-Methoxy-2-(2-Methylpropoxy)-3,3′-Bipyridin-5-yl)-N-(Methylsulfonyl)Benzamide] was tested. Which IC50 did it give?
Answer: 810 nM

Question: Which IC50 does the source give for `COc1cc(C(=O)NS(C)(=O)=O)c(F)cc1-c1cnc(Sc2ccc(C)cc2)c(Cl)c1` [Example 728, 4-(5-chloro-6-((4-methylphenyl)sulfanyl)-3-pyridinyl)-2-fluoro-5-methoxy-N-(methylsulfonyl)benzamide] here?
Answer: 49.5 nM
